“Also recorded” adds a separate entry of the source.
Experiments:
[1] = system: adults with Pompe disease; assay: Study ATB200-02: GSGC, 10MWT, TUG; assay type: in vivo, human
Text: The study design includes 4 stages and 4 cohorts, with Stages 1 and 2 only for Cohort 1 and Stages 3 and 4 for all 4 cohorts (FIG. 79).
The 4 cohorts in the study are as follows: • Cohort 1: ERT-experienced (2 to 6 years) ambulatory subjects (11 subjects) • Cohort 2: ERT-experienced (≥2 years) non-ambulatory subjects (6 subjects) • Cohort 3: ERT-naïve ambulatory subjects (6 subjects)· • Cohort 4: ERT-experienced (≥7 years) ambulatory subjects (6 subjects)

[2] = system: adults with Pompe disease; assay: Study ATB200-02: patient-reported outcomes (FSS, R-PAct, RHS); assay type: in vivo, human
Text: Favorable findings observed through 48 months of treatment in 6MWD and FVC are bolstered by favorable directional trends in several other secondary endpoints for muscle strength, motor function, and respiratory function.
PROs supported the improvements observed for motor function, muscle strength and pulmonary function tests. […] SGIC outcomes for overall physical wellbeing improved in most patients across all cohorts after 48 months of follow up (Table 26C). PGIC results indicated an improvement or stabilization for all cohorts after 48 months of follow up and supported the results of other efficacy outcomes (Table 26C).
One patient reported no change, and one reported an improvement from baseline in SGIC overall physical wellbeing.

[3] = in vivo
Text: Mean (SD) duration of treatment was 37.2 (14.48), 19.9 (4.13) and 36.9 (12.14) months in cohorts 1 (prior ERT 2-6 years), 4 (prior ERT ≥7 years) and 3 (ERT naive), respectively.
Mean (SD) duration of treatment was 46.3 (22.86) months.

[4] = system: adult subjects with Pompe disease; assay: Pooled Studies ATB200-02/03/07: MMT lower extremity score by exposure interval
[5] = system: adults with Pompe disease; assay: Study ATB200-02: urine Hex4; details: for mean reduction from baseline in urine Hex4: b512 prints a minus sign;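 on all read-outs here: Hex4 is the urine glucose tetrasaccharide biomarker, measured at regular intervals during study follow-up and compared with each patient's baseline value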
Protocol: The change from baseline (CFBL) in 6MWD, % predicted sitting FVC, manual muscle test (MMT) and biomarkers—urine glucose tetrasaccharide (Hex4) and serum creatine kinase (CK)—were assessed at regular intervals.

[6] = system: adult subjects with late-onset Pompe disease (LOPD); assay: Study ATB200-03 (PROPEL): MMT lower extremity score; assay type: in vivo, human; details: for CHG to Week 52 in MMT lower extremity score, LS Mean: MMRM, actual time point of assessments; for MMT lower extremity score CHG, LS means (SE): Week 52, ANCOVA
Protocol: The test for the primary endpoint was conducted first at the 1-sided 0.025 significance level, and if significant, the ordered key secondary endpoints were similarly tested at the same significance level. The statistical significance of the key secondary endpoints was interpreted following a hierarchical testing order, each at the 1-sided alpha level of 0.025. […] Primary analyses of efficacy were performed using the mixed-effect model for repeated measures (MMRM) for 6MWD in Intent-to-treat Observed Population (ITT) that includes all available, observed data without any missing data imputation (ITT-OBS) and analysis of covariance (ANCOVA) for all other endpoints in the Intent-to-Treat-Last Observation Carried Forward (ITT-LOCF) Population. A nonparametric randomization based ANCOVA was specified as the first sensitivity analysis for 6MWD and FVC. […] For the purposes of data presentation in this document, 2-sided p-values are reported hereafter, except as otherwise noted.

[7] = Ambulatory ERT-experienced, 12 months
[8] = Ambulatory ERT-experienced, 24 months
[9] = Ambulatory ERT-experienced, 36 months
[10] = Ambulatory ERT-experienced, 48 months
[11] = Ambulatory ERT-naïve, 12 months
[12] = Ambulatory ERT-naïve, 24 months
[13] = Ambulatory ERT-naïve, 36 months
[14] = Ambulatory ERT-naïve, 48 months
[15] = Non-ambulatory ERT-experienced, 12 months
[16] = Non-ambulatory ERT-experienced, 24 months
[17] = Non-ambulatory ERT-experienced, 36 months
[18] = Non-ambulatory ERT-experienced, 48 months
[19] = Baseline, ITT, ERT-naïve Population excluding Subject 4005-2511
[20] = Week 52-LOCF, ERT-experienced Population
[21] = Week 52-LOCF, ERT-naïve Population excluding Subject 4005-2511
[22] = Week 52-LOCF, ITT excluding Subject 4005-2511

Substance: ATB200/miglustat: two-component therapy: cipaglucosidase alfa (ATB200) administered in conjunction with miglustat (AT2221), a stabilizer of cipaglucosidase alfa
- 10-Meter Walk Test, CFBL mean [1, 7]: −0.1 seconds
- Gait, Stairs, Gowers, and Chair, CFBL mean [1, 7]: −1.3
- Timed Up and Go, CFBL mean [1, 7]: -1.5 s
- 10-Meter Walk Test, CFBL mean [1, 8]: 1.0 seconds
- Gait, Stairs, Gowers, and Chair, CFBL mean [1, 8]: −1.6
- Timed Up and Go, CFBL mean [1, 8]: 0.1 s
- 10-Meter Walk Test, CFBL mean [1, 9]: 3.9 seconds
- Gait, Stairs, Gowers, and Chair, CFBL mean [1, 9]: −1.1
- Timed Up and Go, CFBL mean [1, 9]: -1.5 s
- 10-Meter Walk Test, CFBL mean [1, 10]: 0.6 seconds
- Gait, Stairs, Gowers, and Chair, CFBL mean [1, 10]: −1.0
- Timed Up and Go, CFBL mean [1, 10]: -0.6 s
- 10-Meter Walk Test, CFBL mean [1, 11]: −0.9 seconds
- Gait, Stairs, Gowers, and Chair, CFBL mean [1, 11]: −0.8
- Timed Up and Go, CFBL mean [1, 11]: -0.7 s
- 10-Meter Walk Test, CFBL mean [1, 12]: −0.5 seconds
- Gait, Stairs, Gowers, and Chair, CFBL mean [1, 12]: −1.7
- Timed Up and Go, CFBL mean [1, 12]: -1.0 s
- 10-Meter Walk Test, CFBL mean [1, 13]: 0.1 seconds
- Gait, Stairs, Gowers, and Chair, CFBL mean [1, 13]: −2.0
- Timed Up and Go, CFBL mean [1, 13]: 0.5 s
- 10-Meter Walk Test, CFBL mean [1, 14]: 0.7 seconds
- Gait, Stairs, Gowers, and Chair, CFBL mean [1, 14]: −2.4
- Timed Up and Go, CFBL mean [1, 14]: 0.3 s
- GSGC CFB, mean ([1]; Cohort 1 + Cohort 3 + Cohort 4, 24-mo): −1.7
- GSGC CFB, mean ([1]; Cohort 1 + Cohort 3 + Cohort 4, 48-mo): −1.5
- GSGC CFB, mean ([1]; Cohort 1 + Cohort 4 (ERT-experienced), 24-mo, negative = improvement): −1.6
- GSGC CFB, mean ([1]; Cohort 1 + Cohort 4 (ERT-experienced), 48-mo): −1.0
- GSGC CFB, mean ([1]; Cohort 3 (ERT-naïve), 24-mo): −1.7
- GSGC CFB, mean ([1]; Cohort 3 (ERT-naïve), 48-mo): −2.4
- other measures of motor function incl. 10MWT, GSGC, TUG ([1]; ERT-experienced and ERT-naïve ambulatory subjects): improvements in other measures of motor function
- patient-reported outcomes FSS, R-PAct, RHS ([2]; 48 months, listed as cipaglucosidase alfa/miglustat): meaningful improvements in subject-perceived fatigue, ability to perform daily life activities, and overall physical well-being; also recorded: all ambulatory patients reported stable R-PAct scores and RHS compared with baseline scores; also recorded: improved FSS and stable RHS scores compared with baseline
- Fatigue Severity Scale, CFBL mean [2, 7]: −2.9
- Rasch-built Pompe-specific Activity, CFBL mean [2, 7]: 1.3
- Rotterdam Handicap Scale, CFBL mean [2, 7]: −0.3
- Fatigue Severity Scale, CFBL mean [2, 8]: −3.1
- Rasch-built Pompe-specific Activity, CFBL mean [2, 8]: 2.2
- Rotterdam Handicap Scale, CFBL mean [2, 8]: −1.1
- Fatigue Severity Scale, CFBL mean [2, 9]: 1.4
- Rasch-built Pompe-specific Activity, CFBL mean [2, 9]: −0.1
- Rotterdam Handicap Scale, CFBL mean [2, 9]: −2.3
- Fatigue Severity Scale, CFBL mean [2, 10]: −3.4
- Rasch-built Pompe-specific Activity, CFBL mean [2, 10]: −0.3
- Rotterdam Handicap Scale, CFBL mean [2, 10]: −2.3
- Fatigue Severity Scale, CFBL mean [2, 11]: −6.3
- Rasch-built Pompe-specific Activity, CFBL mean [2, 11]: 2.0
- Rotterdam Handicap Scale, CFBL mean [2, 11]: −0.4
- Fatigue Severity Scale, CFBL mean [2, 12]: −5.5
- Rasch-built Pompe-specific Activity, CFBL mean [2, 12]: 2.2
- Rotterdam Handicap Scale, CFBL mean [2, 12]: −0.4
- Fatigue Severity Scale, CFBL mean [2, 13]: −6.2
- Rasch-built Pompe-specific Activity, CFBL mean [2, 13]: 1.4
- Rotterdam Handicap Scale, CFBL mean [2, 13]: −1.2
- Fatigue Severity Scale, CFBL mean [2, 14]: 1.2
- Rasch-built Pompe-specific Activity, CFBL mean [2, 14]: −0.6
- Rotterdam Handicap Scale, CFBL mean [2, 14]: −1.3
- Fatigue Severity Scale, CFBL mean [2, 15]: −9.2
- Rasch-built Pompe-specific Activity, CFBL mean [2, 15]: 1.4
- Rotterdam Handicap Scale, CFBL mean [2, 15]: 0.6
- Fatigue Severity Scale, CFBL mean [2, 16]: −23.0
- Rasch-built Pompe-specific Activity, CFBL mean [2, 16]: 0.8
- Rotterdam Handicap Scale, CFBL mean [2, 16]: 0.6
- Fatigue Severity Scale, CFBL mean [2, 17]: −10.0
- Rasch-built Pompe-specific Activity, CFBL mean [2, 17]: 0.8
- Rotterdam Handicap Scale, CFBL mean [2, 17]: 0.6
- Fatigue Severity Scale, CFBL mean [2, 18]: −12.0
- Rasch-built Pompe-specific Activity, CFBL mean [2, 18]: 2.0
- Rotterdam Handicap Scale, CFBL mean [2, 18]: −1.5
- patients with nasopharyngitis and with diarrhea (most common TEAEs) [3]: 3 patients
- mean (SD) change from baseline in MMT lower extremity score ([4]; exposure >15 to ≤24 months (n=101)): 1.73 (3.675)
- mean (SD) change from baseline in MMT lower extremity score ([4]; exposure >24 months (n=65)): 1.98 (4.527)
- mean (SD) change from baseline in MMT lower extremity score ([4]; exposure ≤15 months (n=135)): 1.36 (3.807)
- Urinary Hex4, % CFBL mean [5, 7]: −36.11%
- Urinary Hex4, % CFBL mean [5, 8]: −11.8%
- Urinary Hex4, % CFBL mean [5, 9]: −35.1%
- Urinary Hex4, % CFBL mean [5, 10]: −4.0%
- Urinary Hex4, % CFBL mean [5, 11]: −40.7%
- Urinary Hex4, % CFBL mean [5, 12]: −49.5%
- Urinary Hex4, % CFBL mean [5, 13]: −39.3%
- Urinary Hex4, % CFBL mean [5, 14]: −39.9%
- mean reduction from baseline in urine Hex4 ([5]; Cohort 2 (non-ambulatory ERT-experienced), 12 months, listed as cipaglucosidase alfa plus miglustat): 15.6%
- mean reduction from baseline in urine Hex4 ([5]; Cohort 2 (non-ambulatory ERT-experienced), 12 months, listed as cipaglucosidase alfa/miglustat): −15.6%
- mean reduction from baseline in urine Hex4 ([5]; Cohort 2, 24 months, listed as cipaglucosidase alfa plus miglustat): 34.1%
- mean reduction from baseline in urine Hex4 ([5]; Cohort 2, 24 months, listed as cipaglucosidase alfa/miglustat): −34.1%
- mean reduction from baseline in urine Hex4 ([5]; Cohort 2, 36 months, listed as cipaglucosidase alfa plus miglustat): 36.5%
- mean reduction from baseline in urine Hex4 ([5]; Cohort 2, 36 months, listed as cipaglucosidase alfa/miglustat): −36.5%
- mean reduction from baseline in urine Hex4 ([5]; Cohort 2, 48 months, listed as cipaglucosidase alfa plus miglustat): 9.4%
- mean reduction from baseline in urine Hex4 ([5]; Cohort 2, 48 months, listed as cipaglucosidase alfa/miglustat): −4.0%
- patients with abnormal baseline Hex4 who had normal Hex4 levels at Month 48 ([5]; ERT-experienced (four of five)): 80.0%
- patients whose urine Hex4 decreased numerically from baseline (n/N) ([5]; ERT-experienced, 12 months): 16/16
- patients whose urine Hex4 decreased numerically from baseline (n/N) ([5]; ERT-experienced, 24 months): 11/14
- patients whose urine Hex4 decreased numerically from baseline (n/N) ([5]; ERT-experienced, 36 months): 11/12
- patients whose urine Hex4 decreased numerically from baseline (n/N) ([5]; ERT-experienced, 48 months): 6/9
- patients with abnormal baseline Hex4 who returned to normal Hex4 levels at Month 48 ([5]; ERT-naïve ambulatory (one of four)): 25.0%
- patients whose urine Hex4 decreased numerically from baseline (n/N) ([5]; ERT-naïve, 12 months): 5/6
- patients whose urine Hex4 decreased numerically from baseline (n/N) ([5]; ERT-naïve, 24 months): 5/6
- patients whose urine Hex4 decreased numerically from baseline (n/N) ([5]; ERT-naïve, 36 months): 4/5
- patients whose urine Hex4 decreased numerically from baseline (n/N) ([5]; ERT-naïve, 48 months): 4/5
- Urinary Hex4, % CFBL mean [5, 15]: −15.6%
- Urinary Hex4, % CFBL mean [5, 16]: −34.1%
- Urinary Hex4, % CFBL mean [5, 17]: −36.5%
- Urinary Hex4, % CFBL mean [5, 18]: −9.4 ) %

Substance: alglucosidase alfa [reference compound]
- MMT Lower Extremity Score Absolute Value, Mean [6, 19]: 33.57
- MMT lower extremity score Absolute Value, Median [6, 19]: 32.00
- mean (SD) change in MMT lower extremity score from baseline to Week 52 ([6]; ERT-experienced Population): 0.9 (2.81)
- mean (SD) change in MMT lower extremity score from baseline to Week 52 ([6]; ERT-naïve excluding Subject 4005-2511): 1.0 (1.53)
- Change in MMT lower extremity score baseline to Week 52, LS means (SE) from ANCOVA ([6]; ITT-LOCF, ERT-naïve Population excluding Subject 4005-2511): 0.69 (1.013)
- CHG to Week 52 in MMT lower extremity score, LS Mean ([6]; ITT-OBS excluding Subject 4005-2511 (overall)): 0.7
- CHG to Week 52 in MMT lower extremity score, LS Mean ([6]; ITT-OBS excluding Subject 4005-2511, ERT-naïve Subjects): −0.0
- CHG to Week 52 in MMT lower extremity score, LS Mean ([6]; ITT-OBS, ERT-experienced Subjects): 0.9
- MMT lower extremity score Absolute Value, Mean (SD) [6, 20]: 26.96 (6.802)
- MMT lower extremity score Absolute Value, Median [6, 20]: 28.00
- MMT lower extremity score CHG, Mean (SD) [6, 20]: 0.85 (2.811)
- MMT lower extremity score CHG, Median [6, 20]: 1.00
- MMT Lower Extremity Score Absolute Value, Mean [6, 21]: 34.57
- MMT Lower Extremity Score CHG (change from baseline), Mean [6, 21]: 1.00
- MMT Lower Extremity Score CHG (change from baseline), Median [6, 21]: 2.00
- MMT lower extremity score Absolute Value, Median [6, 21]: 34.00
- MMT lower extremity score Absolute Value, Mean (SD) [6, 22]: 28.53 (6.999)
- MMT lower extremity score Absolute Value, Median [6, 22]: 29.00
- MMT lower extremity score CHG, Mean (SD) [6, 22]: 0.88 (2.579)
- MMT lower extremity score CHG, Median [6, 22]: 1.00
- MMT lower extremity score CHG, LS means (SE) ([6]; ITT-LOCF excluding Subject 4005-2511): 0.68 (0.603)
- MMT lower extremity score CHG, LS means (SE) ([6]; ITT-LOCF, ERT-experienced Population): 0.90 (0.735)
- mean (SD) change in MMT lower extremity score from baseline to Week 52 ([6]; overall population): 0.9 (2.58)

From patent US20260041744A1, “Methods for Treating Pompe Disease” (Amicus Therapeutics, Inc., priority 2022, published 2026)
